Experimental data: the METLIN SMRT retention time set (Domingo-Almenara et al. 2019)

Assay: gradient 5% acetonitrile 3 min, to 50% in 2 min, to 85% in 15 min, held 3 min, 100 µL/min
Details: column: Zorbax Extend-C18 2.1 x 50 mm; eluents: water / acetonitrile, 0.1% formic acid
In short: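 In both positive and negative ionization mode, a quadrupole time-of-flight mass spectrometer coupled to HPLC analyzed pure standards run in mixtures of ~100 molecules. The Zorbax Extend-C18 column (2.1 × 50 mm, 1.8 μm) was operated at 100 μL/min with water and acetonitrile, each containing 0.1% formic acid. The dead volume was 40 μL and the dwell volume 900 μL. Retention time came from adduct peaks that were computationally picked and individually inspected by hand.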

For CCCc1nc2ccc(NC(=O)NCC)cc2c(=O)n1Cc1ccc(-c2ccccc2)cc1, the RP-LC retention time was 996 s.
For Cc1ccc(C)c(Sc2ccc(N3CCC(C(=O)NCc4ccco4)CC3)nn2)c1, the RP-LC retention time was 818 s.
Compound COc1ccc(-n2c(=O)n(C)c(=O)c3cc(C(=O)NCc4ccccc4F)cnc32)cc1 has an RP-LC retention time of 849 s.
For COc1cccc(-c2n[nH]c3c2C(c2ccc(OC)cc2OC)NC3=O)c1 (stereo unspecified), the RP-LC retention time was 753 s.
O=S(=O)(c1ccc2nc(N3CCN(c4ccc(F)cc4)CC3)ccc2c1)N1CCOCC1 gave an RP-LC retention time of 890 s.
CCCc1noc(-c2cccnc2N2CCCN(Cc3ccc(Cl)cc3)CC2)n1 gave an RP-LC retention time of 754 s.
Work on COc1ccc(CC(=O)N2CCC3(CC2)NC(=O)c2ccc(F)cc2N3C)cc1 yielded an RP-LC retention time of 759 s.
Work on O=C(NC1CCN(Cc2ccccc2)CC1)C1CC(=O)N(CCc2ccccc2)C1 (stereo unspecified) yielded an RP-LC retention time of 600 s.
Work on COC(=O)c1cccc(NC(=O)N2C[C@H]3C[C@@H](C2)c2cccc(=O)n2C3)c1 yielded an RP-LC retention time of 636 s.
COc1ccc(NC(=O)CCNc2cnc3cnccn23)cc1F gave an RP-LC retention time of 589 s.
COc1ccc(NS(=O)(=O)c2cc3n(c2)CCCN(C)C3=O)cc1Cl gave an RP-LC retention time of 696 s.
Work on Cc1cccc(CN2CC(c3noc(C4CCCN4CC4CC4)n3)C2)c1 (stereo unspecified) yielded an RP-LC retention time of 526 s.
For Cc1cc(C)c(NC(=O)Cn2nc3cc(-c4ccccc4)nc(C)n3c2=O)c(C)c1, the RP-LC retention time was 985 s.
Work on CCOc1ccc(CC(=O)Nc2nc(-c3cccs3)cs2)cc1 yielded an RP-LC retention time of 963 s.
Work on CCOC(=O)c1oc2ccc(S(=O)(=O)N3CC4CN(C)CC(C3)O4)cc2c1C yielded an RP-LC retention time of 649 s.
COc1ccc(C)cc1N(C)C(=O)C1CCCN(c2ncnc3c2nc2n3CCCCC2)C1 (stereo unspecified) showed an RP-LC retention time of 869 s.
In the case of NC(=O)c1ccsc1NC(=O)c1ccc(S(=O)(=O)N2CCc3ccccc3C2)cc1, the RP-LC retention time is reported as 877 s.
Work on COCCn1cc2c3c(cccc31)CN(C(=O)Nc1ccccc1C(F)(F)F)CC2 yielded an RP-LC retention time of 981 s.
With Cc1sc(C)c(S(=O)(=O)NCc2ccc(N(C)C)cc2)c1-c1cc(C(F)(F)F)on1 the RP-LC retention time was 960 s.
Work on COc1ccccc1COC(=O)C1=CN(Cc2ccccc2)S(=O)(=O)N=C1C yielded an RP-LC retention time of 1130 s.
Cc1ccccc1Cn1cc(-c2ccncc2)cc1C(=O)NC1CC1 showed an RP-LC retention time of 648 s.
Work on Cc1ccc(NC(=O)CN2C(=O)C3CCCCN3c3ccc(S(=O)(=O)N(C)C)cc32)cc1C (stereo unspecified) yielded an RP-LC retention time of 922 s.
With CCc1ccc(CNC(=O)C2CCN(C(=O)c3ncn4c3COC(c3ccccc3)C4)CC2)cc1 (stereo unspecified) the RP-LC retention time was 756 s.
O=S(=O)(c1cc(F)ccc1F)N1CCC(c2noc(COCC3CC3)n2)CC1 showed an RP-LC retention time of 1000 s.
Work on Cn1nc(-c2nncn2CC2CC2)c2c1CCN(C(=O)CC1CCCC1)C2 yielded an RP-LC retention time of 753 s.
Work on CCCn1cnc2cc(-c3noc(C(NC(=O)c4ccco4)C(C)C)n3)ccc21 (stereo unspecified) yielded an RP-LC retention time of 708 s.
Work on COc1cccc(Cc2nc(-c3cccc(-c4ccnn4C)c3)no2)c1 yielded an RP-LC retention time of 1010 s.
With CC(C)Cn1cc(S(=O)(=O)Nc2cc(F)cc(F)c2)c2cccnc21 the RP-LC retention time was 994 s.
Cc1cccc(NC(=O)C2CCN(S(=O)(=O)c3cc(-c4noc(C)n4)cs3)CC2)n1 gave an RP-LC retention time of 768 s.
Work on COc1ccccc1NC(=O)c1cnc(-c2ccccc2)nc1-c1ccncc1 yielded an RP-LC retention time of 887 s.
Compound CCN1C(=O)c2cc(C(=O)Nc3ccc(Cl)cc3)nn2CC1(C)C(=O)NC1CCCC1 (stereo unspecified) has an RP-LC retention time of 860 s.
Compound CCc1noc(NC(C)=O)c1-c1ccc(OC)c(S(=O)(=O)Nc2cccc(Cl)c2)c1 has an RP-LC retention time of 831 s.
Cc1ccsc1C(=O)NC1CCN(c2cc(-c3ccccc3)[nH]n2)C1 (stereo unspecified) showed an RP-LC retention time of 704 s.
With Cc1nnc(C2CCCN(C(=O)c3nc4ccccc4s3)C2)s1 (stereo unspecified) the RP-LC retention time was 736 s.
O=C(Cn1nc2n(c1=O)CCCCC2)Nc1ccc(C(F)(F)F)cc1 gave an RP-LC retention time of 764 s.
Compound CCCn1cnc2cc(CNC(=O)COc3ccc(Cl)cc3C)ccc21 has an RP-LC retention time of 692 s.
In the case of Cc1ccc(SCC(=O)Nc2nc(-c3ccccc3)cs2)cc1, the RP-LC retention time is reported as 1100 s.
In the case of CCCCn1cc(S(=O)(=O)Nc2ccccc2C)c2cccnc21, the RP-LC retention time is reported as 985 s.
For O=C(COc1ccccc1)N1CCC(CNS(=O)(=O)c2ccc(Cl)s2)CC1, the RP-LC retention time was 843 s.
Compound O=C(c1ccc(F)c(F)c1)N1CCc2nc(-c3ccccc3)ncc2C1 has an RP-LC retention time of 951 s.
With Cc1ccccc1CNC(=O)c1csc(-c2cn(C)c3ncccc23)n1 the RP-LC retention time was 1120 s.
In the case of COc1ccc(Cl)cc1S(=O)(=O)NCCc1cn(C)c2ncccc12, the RP-LC retention time is reported as 764 s.
In the case of COc1ccc(NC(=O)N2CCC(n3cnc4cccnc43)CC2)c(OC)c1, the RP-LC retention time is reported as 633 s.
CNC(=O)NC1CCN(C(=O)c2cccc(F)c2)C1 (stereo unspecified) showed an RP-LC retention time of 628 s.
With Cc1cccc(S(=O)(=O)N2CCc3c(c(-c4nnc(-c5ccc(F)cc5)o4)nn3C)C2)c1 the RP-LC retention time was 955 s.
With COC(=O)c1c(NCc2cccs2)c2cccc(Cl)c2[nH]c1=O the RP-LC retention time was 764 s.
Compound Cc1nc(-c2ccccc2OC2CN(S(=O)(=O)Cc3ccccc3)C2)no1 has an RP-LC retention time of 916 s.
With COc1ccc(CN2CC3(CCN(S(=O)(=O)c4c(C)nn(C)c4C)CC3)C2=O)cc1 the RP-LC retention time was 761 s.
Cc1ccccc1CN1C[C@@H]2C(=O)N(Cc3ccc4c(c3)OCO4)C(=O)[C@@H]2C1 showed an RP-LC retention time of 824 s.
For CCCc1sc(NC(=O)Cn2nc3c(cc2=O)CCCC3)nc1C(=O)OC, the RP-LC retention time was 840 s.
For O=C1Nc2ccccc2SC1C(=O)N1CCC(C(=O)N2CC=C(c3ccccc3)CC2)CC1 (stereo unspecified), the RP-LC retention time was 831 s.
Compound CCc1ccc2nc(C)cc(C(N)=O)c2c1 has an RP-LC retention time of 561 s.
CCCn1cc(CCNC(=O)Nc2ccc(C)cc2Cl)c2cccnc21 gave an RP-LC retention time of 886 s.
In the case of O=C(c1ccccc1Cl)N1CCN=C1N1CCCCC1, the RP-LC retention time is reported as 638 s.
CCCOc1ccc(CNC(=O)C2CCc3nc(N4CCOCC4)ncc3C2)cc1 (stereo unspecified) showed an RP-LC retention time of 792 s.
Work on CC(C)CC(=O)Nc1ccc2nc(N3CCN(Cc4ccccc4F)CC3)cc(C(=O)O)c2c1 yielded an RP-LC retention time of 603 s.
COc1ccc(Cl)cc1NS(=O)(=O)c1c(C)sc(C)c1-c1cc(C)[nH]n1 showed an RP-LC retention time of 1040 s.
Compound Cc1ccc(CNC(=O)C2CCN(S(=O)(=O)c3cc(C(=O)N4CCCC4)n(C)c3)CC2)cc1 has an RP-LC retention time of 872 s.
CC(C)c1cccc(NC(=O)Cn2ncc3c(c2=O)N(C2CC2)C(=O)CS3)c1 gave an RP-LC retention time of 812 s.
With CN(C)CCNC(=O)Cn1ncn2nc(-c3ccccc3)cc2c1=O the RP-LC retention time was 620 s.
O=C(Cn1cc(-c2ccccc2)c2ncn(C3CC3)c(=O)c21)NCc1ccco1 showed an RP-LC retention time of 799 s.
Cc1nc(NCCNC(=O)c2ccc(Br)o2)cc(-n2cccn2)n1 gave an RP-LC retention time of 673 s.
For O=C(Nc1ccccc1)N1CCc2nn(Cc3ccccc3)c(=O)n2CC1, the RP-LC retention time was 736 s.
Work on COc1ccc(-c2nnc(SCc3cccc(C(F)(F)F)c3)o2)cc1OC yielded an RP-LC retention time of 992 s.
For COc1cccc(S(=O)(=O)N2CCC3(CC2)CC(OC)CCO3)c1 (stereo unspecified), the RP-LC retention time was 865 s.
COc1cccc(CNC(=O)c2cn3cc(C)ccc3n2)c1OC gave an RP-LC retention time of 541 s.
